Like-named read-outs stand apart in the source and are kept apart here. One block for each molecule: values may come before it.
Experiments:
[1] = biological target: T1, histidinol dehydrogenase from cabbage (Brassica oleracea var. capitata, UniProt P24226); test: Histidinol dehydrogenase enzyme assay (spectrophotometric, NAD+ reduction at 340 nm); format: biochemical; conditions: for Relative Activity: metal ion 0.5 mM, activity after 3 min reaction time, None = 100
T1 construct: Spring cabbage heads are homogenized using a kitchen mixer; from tissue; host or cells: mature spring cabbage heads
T1 sequence (P24226 32-469): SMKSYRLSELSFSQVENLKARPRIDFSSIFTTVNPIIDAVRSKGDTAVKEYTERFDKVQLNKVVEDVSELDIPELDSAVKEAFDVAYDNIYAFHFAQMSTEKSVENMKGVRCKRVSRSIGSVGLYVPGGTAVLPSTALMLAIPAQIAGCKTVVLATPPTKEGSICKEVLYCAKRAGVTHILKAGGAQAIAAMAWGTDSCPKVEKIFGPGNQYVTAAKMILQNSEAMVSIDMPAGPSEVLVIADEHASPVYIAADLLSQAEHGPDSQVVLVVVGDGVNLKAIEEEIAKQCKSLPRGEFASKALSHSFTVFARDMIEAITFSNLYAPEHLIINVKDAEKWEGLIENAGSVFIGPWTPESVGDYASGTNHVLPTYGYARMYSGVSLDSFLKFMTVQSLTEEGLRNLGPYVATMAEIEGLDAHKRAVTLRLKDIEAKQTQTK
Protocol: (§1) The enzyme activity is assayed spectrophotometrically by measuring the increase in absorbence at 340 nm due to the reduction of NAD+in a Hitachi U-3120 spectrophotomer. The reaction mixture contained 150 mM Gly/NaOH buffer, pH 9.2, 0.5 mM, MnCl , 2 mM NAD+, 5 mM histidinol, and 2-5 mU of enzyme sample in total volume of 0.5 ml. The reaction is started with the addition of histidinol, and incubated at 30° C. A reference sample containing water instead of histidinol is always run. One unit of enzyme catalyzes the formation of 2 μmol of NADH per min under the assay conditions.
as §1, with “absorbance” for “absorbence”, “spectrophotometer.” for “spectrophotomer.”, “pH9.2,” for “pH 9.2,”, “MnCl2,” for “MnCl ,”, “NAD +,” for “NAD+,”, “catalyzing” for “catalyzes”

[2] = tested on: histidinol dehydrogenase from S. typhimurium; conditions: cited from earlier work
[3] = tested on: histidinol dehydrogenase from wheat germ; conditions: cited from earlier work
[4] = substrate: N[C@H](CO)Cc1c[nH]cn1; test: purified protein, by the assay type; conditions: other: standard assay conditions; pH 9.2; 30.0 °C
[5] = substrate: NC(=O)c1ccc[n+]([C@@H]2O[C@H](COP(=O)([O-])OP(=O)(O)OC[C@H]3O[C@@H](n4cnc5c(N)ncnc54)[C@H](O)[C@@H]3O)[C@@H](O)[C@H]2O)c1; test: Histidinol dehydrogenase enzyme assay (spectrophotometric, NAD+ reduction at 340 nm); format: biochemical, cabbage (Brassica oleracea); conditions: other: standard assay conditions; pH 9.2; 30.0 °C
Protocol: as §1
as §1, with “absorbance” for “absorbence”, “spectrophotometer.” for “spectrophotomer.”, “pH9.2,” for “pH 9.2,”, “MnCl2,” for “MnCl ,”, “NAD +,” for “NAD+,”, “catalyzing” for “catalyzes”

[6] = reaction buffer 150 mM Gly/NaOH, pH9.2

Relative Activity [1]: 24%
influence of divalent metal ion on the enzyme reaction (in words) [1, 6]: caused inhibition
Molecule: [Cu+2] [Cu^2+]

Molecule: N[C@H](CO)Cc1c[nH]cn1 [L-histidinol]
Km ([2]; read-out: Km of the pure enzyme from S. typhimurium for L-histidinol, pure enzyme): 16 µM
Km ([3]; read-out: Km of the partially purified enzyme from wheat germ for L-histidinol): 8.8 µM

Molecule: [Ni+2] [Ni^2+]
Relative Activity [1]: 46%
influence of divalent metal ion on the enzyme reaction (in words) [1, 6]: caused inhibition

Molecule: [Ba+2] [Ba^2+]
Relative Activity [1]: 65%
influence of divalent metal ion on the enzyme reaction (in words) [1, 6]: caused inhibition

Relative Activity [1]: 34%
influence of divalent metal ion on the enzyme reaction (in words) [1, 6]: caused inhibition
Molecule: [Zn+2] [Zn^2+]

Molecule: [Mn+2] [Mn^2+]
Relative Activity [1]: 126%
influence of divalent metal ion on the enzyme reaction (in words) [1, 6]: stimulation of the enzyme activity
stimulation of the reaction compared to control without any divalent metal ion [1, 6]: 26%
effect of metal ion on the reaction catalyzed by the S. typhimurium enzyme (in words) [2]: stimulated

Relative Activity [1]: 54%
influence of divalent metal ion on the enzyme reaction (in words) [1, 6]: caused inhibition
Molecule: [Mg+2] [Mg^2+]

Relative Activity [1]: 36%
influence of divalent metal ion on the enzyme reaction (in words) [1, 6]: caused inhibition
Molecule: [Ca+2] [Ca^2+]

Molecule: NC(=O)c1ccc[n+]([C@@H]2O[C@H](COP(=O)([O-])OP(=O)(O)OC[C@H]3O[C@@H](n4cnc5c(N)ncnc54)[C@H](O)[C@@H]3O)[C@@H](O)[C@H]2O)c1 [NAD+]
Km ([2]; read-out: Km of the enzyme from S. typhimurium for NAD+): 1000 µM
Km ([3]; partially purified enzyme, read-out: Km of the enzyme from wheat germ for NAD+): 140 µM

B1: histidinol dehydrogenase from cabbage (Brassica oleracea var. capitata) (protein)
chain: T1 sequence (P24226 32-469)
notes: Spring cabbage heads are homogenized using a kitchen mixer; from tissue; host or cells: mature spring cabbage heads
Km [4]: 15.5 µM
Km [5]: 42 µM

Source: patent US5290926A, “Isolated DNA Encoding plant histidinol dehydrogenase” (Ciba-Geigy Corporation, priority 1990, dated 1994)
